Assay results taken from US20220196659A1, “METHOD FOR DETERMINING EFFICACY” (LDN Pharma Limited, priority 2019, published 2022).

Columns and labels:
[1] = tested on: CD3+/CD8+ cells (killer T-cells); test: CD3+ activation: CD69 expression of PBMCs cultured with LDN or NTX (flow cytometry); type: cell-based; conditions: 48 h culture of PBMCs
Protocol: Peripheral-blood mononuclear cells were isolated from whole blood or from the residue product of leucoreduction of whole blood from pathologically healthy donors using Histopaque-1077. The mononuclear fraction was harvested and red blood cell contamination removed by incubation in hypotonic ammonium chloride. Cells were washed in phosphate buffered saline (PBS) and platelet contamination removed by centrifugation at 200 g for 10 min, re-suspended at a concentration of 1×10^6 ml in RPMI-1640 culture medium. […] Peripheral-blood mononuclear cells were washed twice in wash buffer (PBS containing 1% (v/v) FBS and 0.09% (v/v) NaN3), and stained for 30 min at 4° C. with the relevant and stated antibodies for assessment of immune cell profile. Cells were washed in wash buffer and fixed in 4% paraformaldehyde for 20 min at 4° C. Expressions of the surface markers were analysed using a BD Bioscience LSR II flow cytometer with dedicated proprietary software.

[2] = tested on: pERK; test: PD analysis: Western blotting of PBMCs from normal volunteers after a single naltrexone tablet; type: in vivo, human; conditions: Western blot
Protocol: There were 5 treatment cohorts with 8 normal volunteers in each cohort. […] PBMCs were harvested at 0 and 48 h by ficoll extraction and lysed in cell lysis buffer. Western blotting was then performed on the samples, and pERK, tERK, BAX and p21 measured.

## O=C1CC[C@@]2(O)[C@H]3Cc4ccc(O)c5c4[C@@]2(CCN3CC2CC2)[C@H]1O5 [naltrexone, morphinan-6-one,17-(cyclopropylmethyl)-4,5-epoxy-3,14-dihydroxy-(5+)]
[1]; 10 nM naltrexone (LDN)
  CD69 expression in CD3+/CD8+ cells: increased
[1]; 10 uM naltrexone (NTX)
  CD69 expression in CD3+/CD8+ cells: did not increase
[2]; single dose 1 mg tablet
  level of pERK expression at 48 h compared to 0 h: decreased
[2]; single dose 3 mg tablet
  level of pERK expression at 48 h compared to 0 h: increased
[2]; single dose 4.5 mg tablet
  level of pERK expression at 48 h compared to 0 h: decreased
[2]; single dose 6 mg tablet
  level of pERK expression at 48 h compared to 0 h: decreased
[2]; single dose 10 mg tablet
  level of pERK expression at 48 h compared to 0 h: decreased
